Laboratory results taken from patent publication US8420100B2, “Tumor suppressor activating polypeptides and uses thereof” (Department of Biotechnology, priority 2006, dated 2013).

What was measured:
[1] = tested on: p53-driven p21 promoter in K562 (p53-/-) cells; assay: p21 luciferase reporter assay in K562 (p53-/-) cells; format: cell-based; details: 10 μM peptide; for activation of p53 (p21 promoter driven luciferase activity): K562 (p53-/-) co-transfected with p21 luciferase reporter and p53 constructs, 12 h
Procedure: TAT-SMAR1 WT peptide (P44) modulates p53 function: To examine whether P44 peptide could alone activate p53^−, luciferase reporter assays were performed following treatment of cells with the chimeric TAT-SMAR1 derived peptides. HEK 293 (p53^+/+) cells were transfected with p21 expression plasmid having luciferase reporter gene and K562 (p53^−/−) cells were co-transfected with p21 luciferase reporter and p53 constructs. […] (FIG. 2A, bar 3) and about 1.5 fold activation in p53^−/− cell line (FIG. 2B, bar 4).
FIG. 2. P44 peptide activates the p53-driven p21 gene expression in reporter assays. p21 promoter activity was checked in both HEK 293 (p53^+/+) (A) and K562 (P53^−/−) cells (B). Cells were transfected with either pG13 […] reporter plasmid, a p53-driven p21 promoter, in HEK 293 cells or cotransfected with wild-type (wt) p53 in K562 cells. After 24 h post-transfection, cells were treated for 12 h with 10 μM concentration of various TAT-SMAR1 chimeric peptides. Y axis represents the fold luciferase activity (mean±SD of three independent experiments).
Luciferase reporter assay: HEK 293 (p53^+/+) and K562 (p53^−/−) cells were grown in DMEM supplemented with 10% FBS in the presence of 5% CO2 at 37° C., a total number of 1×10^6, cells were plated on a 6-well plate. After 24 h, cells were transiently transfected using lipofectamine-2000 with either 1 μg of p21 expression plasmid having luciferase reporter gene or 5 μg p21 luciferase along with wt p53 construct in K562 cell line. Two micrograms of pRL-CMV (Renilla luciferase reporter plasmid) was included in all transfections to normalize the transfection efficiency. Thirty six hours post-transfection, cells were treated with 10 μM of either P44 peptide or its various mutants. The cells were harvested 12 h post-treatment, washed with PBS and lysed in 1× Passive lysis buffer (Promega). After three freeze-thaw cycles, cells were spun at 10,000 rpm at 4° C. for 20 min. The supernatants were collected and protein concentrations were estimated spectrophotometrically using Bradford reagent as (BioRad, CA). According to the manufacturer's instructions, luciferase activity was assessed using the dual luciferase assay reporter kit (Promega). The luciferase activity was measured by using Fluoroskan Ascent Luminometer (Labsystems). For all the luciferase assays, the data shown are the mean+SD of three independent experiments.

p53 = target: T1, p53 (Homo sapiens, UniProt P04637); assay: Indirect immunofluorescence of p53 in peptide-treated HEK 293 cells (confocal imaging); format: cell-based; details: HEK 293, 10 μM peptide, 12 h
T1 construct: HEK 293 (p53^+/+) cells; endogenous in cells; host or cells: HEK 293
Procedure: HEK 293 cells were treated with 10 μM of various TAT-SMAR1 derived peptides.
FIG. 4. Serine 347 residue of SMAR1 mediates p53 activation and stabilization. A, HEK 293 cells were cultured at a density of 5×10^5 cells and 24 h later treated with 10 μM concentration of either the P44 or various serine-mutant peptides (PS347A, PS348A, PS349A, PS350A and RS mutant; SM). After 12 h of treatment, protein lysates were prepared and immunoblotted using pSer-15 p53 and pcdc-2 antibodies. Actin was used as the loading control. B, Peptides P44 (panel B), PS347A (panel C), PS348A (panel D), PS349A (panel E), PS350A (panel F) and SM (panel G) were incubated at a final concentration of 10 μM with HEK 293 cells for 12 h before indirect immunofluorescence detection with a primary antibody against p53 protein and a secondary fluorescein-conjugated anti-mouse IgG.
Immunocytochemistry and confocal imaging: For direct detection of TRITC-labeled peptides, HEK 293 cells were plated directly on a glass coverslip and cultured overnight prior to their treatment to TRITC-conjugated various TAT-SMAR1 derived peptides. After 12 h incubation, three washings with cold PBS were given and the cells fixed with 3.7% paraformaldehyde before being mounted in PBS/Glycerol (1:1) containing antifading agent. For indirect immunodetection, 2×10^5 HEK 293 cells were plated and cultured overnight in 35 mm plates on glass coverslips. The cell monolayer was then treated with either of the various TAT SMAR1 derived peptides, dissolved directly in complete DMEM medium at the appropriate concentration (final concentration 10 μM). After 12 h incubation, cells were washed twice with cold PBS and fixed with 3.7% paraformaldehyde. Subsequently, fixed cells were stained for total p53 using anti-p53 (DO-1) (SantaCruz) for an hour at room temperature.
For detection, cells were incubated with a secondary-antibody mix containing FITC-conjugated anti-mouse IgG antibodies (Sigma) for 1 h at RT. Slides were then mounted in antifade mounting medium (Dako) and analyzed with a confocal laser scanning microscope (CLSM 510, version 2.01; Zeiss, Thornwood, N.Y.).

[2] = tested on: protein kinase C (PKC) family of proteins; assay: In vitro phosphorylation (kinase) assay with HEK 293 whole cell extract; format: biochemical; details: for phosphorylation of peptide by extract of staurosporine-treated cells: extract from 293 cells treated with 20 nM staurosporine (PKC inhibitor); for phosphorylation of peptide by whole cell extract: extract from untreated 293 cells

T1 sequence (P04637 whole entry): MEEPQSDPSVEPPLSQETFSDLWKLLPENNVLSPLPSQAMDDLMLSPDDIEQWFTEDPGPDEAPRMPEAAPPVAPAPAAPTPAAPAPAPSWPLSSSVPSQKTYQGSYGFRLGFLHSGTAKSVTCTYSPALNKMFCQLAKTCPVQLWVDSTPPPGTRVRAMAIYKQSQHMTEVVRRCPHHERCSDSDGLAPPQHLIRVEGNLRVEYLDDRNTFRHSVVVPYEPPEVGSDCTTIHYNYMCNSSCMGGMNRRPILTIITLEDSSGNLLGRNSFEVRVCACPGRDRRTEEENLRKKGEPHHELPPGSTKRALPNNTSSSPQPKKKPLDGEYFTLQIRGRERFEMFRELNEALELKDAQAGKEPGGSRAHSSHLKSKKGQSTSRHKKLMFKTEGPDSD

Sequence	activation of p53 (p21 promoter driven luciferase activity) [1]	p53 activation and stabilization within the nucleus (p53)	phosphorylation of peptide by extract of staurosporine-treated cells [2]	phosphorylation of peptide by whole cell extract [2]	p21 promoter luciferase activity with peptide alone ([1]; K562 (p53-/-) cells without p53 construct)	increased γ-P32 ATP incorporation in comparison to mutant counterpart (SM) ([2]; whole cell extract from untreated 293 cells) [fold]
YGRKKRRQRRRTAWRRKQRGQSLAVKSFSRRTPSSASYSASETM [PS349A, point mutant of P44, serine 349 replaced by alanine]	No significant alteration	p53 stabilization was observed	failed to phosphorylate	–	–	–
YGRKKRRQRRRTAWRRKQRGQSLAVKSFSRRTPASSSYSASETM [PS347A, point mutant of P44, serine 347 replaced by alanine]	complete loss	almost negligible expression of p53 within the nucleus	no difference	abolished	–	–
YGRKKRRQRRRTAWRRKQRGQSLAVKSFSRRTPSASSYSASETM [PS348A, point mutant of P44, serine 348 replaced by alanine]	No significant alteration	p53 stabilization was observed	failed to phosphorylate	–	–	–
YGRKKRRQRRRTAWRRKQRGQSLAVKSFSRRTPSSSAYSASETM [PS350A, point mutant of P44, serine 350 replaced by alanine]	No significant alteration	p53 stabilization was observed	failed to phosphorylate	–	–	–
YGRKKRRQRRRTAWRRKQRGQSLAVKSFSRRTPAAAAYSASETM [SM, P44 mutant where serine residues from 347-350 were replaced by alanines]	complete loss	almost negligible expression of p53 within the nucleus	no difference	not and further reduction in its phosphorylation compared to PS347A peptide	–	–
YGRKKRRQRRRTAWRRKQRGQSLAVKSFSRRTPSSSSYSASETM [P44, 33 mer SMAR1 peptide (residues 324-357) conjugated with 11-mer TAT-PTD]	about 1.5 fold	activate and stabilize p53 within the nucleus	failed to phosphorylate	gets phosphorylated	no activity	6 to 7
